IC50 data for two compounds are collected here from ChEMBL document CHEMBL4400584, “Relative Configurational Assignment of 4-Hydroxyprorocentrolide and Prorocentrolide C Isolated from a Benthic Dinoflagellate ( Prorocentrum lima)” (J Nat Prod, 2019).

Holding throughout (assay type): functional, cell-based
Experiment [1] relates to HCT-116. In words: Cytotoxicity against human HCT116 cells assessed as reduction in cell viability after 48 hrs by MTT assay. The note with it: HCT-116, 48 h.
Experiment [2] deals with N2a. The experiment in a line: Cytotoxicity against mouse Neuro2a cells assessed as reduction in cell viability after 48 hrs by MTT assay.
Experiment [3] deals with HepG2. In words: Cytotoxicity against human HepG2 cells assessed as reduction in cell viability after 48 hrs by MTT assay. Particulars: HepG2, 48 h. In general terms: Formazan colour is commonly taken as a measure of viable cells.

Broadly, the IC50 is the concentration at which inhibition is half-maximal.

On to `C=C1CCC[C@H]2O[C@H](CC3=C[C@@H]4/C(C)=C/C[C@@H](C)C[C@@H](/C=C(\C)[C@@H](O)[C@@H]5C[C@@H](O)[C@H](O)[C@@H](CC[C@H](O)/C=C/C(C)=C/CCC6=NCC[C@H](C3)[C@@]64C)O5)OC(=O)C[C@@H]3O[C@H]([C@@H](O)[C@H]3O)[C@@H](O)C1)C[C@@H](O)[C@@H]2O`, for which the IC50 in experiment [1], in experiment [2] and in experiment [3] was greater than 10 µM in each case.
Turning to `C=C1CC/C=C/[C@@H](O)[C@H](O)C[C@H](O)CC2=C[C@@H]3/C(C)=C/C[C@@H](C)C[C@@H](/C=C(\C)[C@@H](O)[C@@H]4C[C@@H](O)[C@H](O)[C@@H](CC[C@H](O)/C=C/C(C)=C/CCC5=NCC[C@H](C2)[C@@]53C)O4)OC(=O)C[C@@H]2O[C@H]([C@@H](O)[C@H]2O)[C@@H](O)C1`, the values for the IC50 in experiment [1], in experiment [2] and in experiment [3] were 2.2 µM, 5.2 µM and greater than 50 µM, respectively.
